Experimental data from article PMC8583417, “Evaluation of the Antimicrobial Efficacy of N-Acetyl-L-Cysteine, Rhamnolipids, and Usnic Acid—Novel Approaches to Fight Food-Borne Pathogens” (International Journal of Molecular Sciences, 2021).

Columns and labels:
[1] = tested on: S. Enteritidis ATCC 13076; assay: CLSM analysis, biofilm prevention; format: cell-based, Salmonella enterica Enteritidis; details: 24 h exposure; for Thickness (µm) subCBM80: substance at subinhibitory concentration, mean ± SD
Experimental: Biofilm prevention and removal analyses were performed using previously determined minimum inhibitory and subinhibitory concentrations for metabolic activity (MICBM80, subCBM80; MICMPB80, subCMPB80) of NAC, RLs, and UA specific for each tested strain. Selected concentrations were used to evaluate the inhibition of biofilm formation (biofilm prevention) and the reduction in previously formed biofilms (biofilm removal) for the same set of microorganisms, with the exception of S. Infantis, which was excluded from the analysis due to its inability to form biofilm in the selected microtiter plate. Biofilm prevention and removal were observed using CLSM with specific staining to distinguish between live and membrane-compromised cells. Images were analyzed to evaluate (i). the total volume of the biomass, (ii). ratios of live and membrane-compromised cells, and (iii). to calculate biofilm volume reduction for individual organisms after the respective treatment types. The total biofilm volume was normalized by the area of the well and expressed as an average biofilm thickness. Complete data are provided in Supplementary Materials (Tables S1–S8).
For both inhibition and reduction of biofilms, overnight cultures from BHI were diluted in TSB + 1% Glc to reach an absorbance of 0.08 to 0.1 at 625 nm. The inoculum (150 µL) was transferred into wells of the 96-well flat-bottomed Ibidiμ-Plate (Ibidi, Gräfelfing, Germany) and mixed with 150 µL of each of the three tested substances in technical quadruplicates, followed by incubation at 37 °C for 24 h. Simultaneously, the prepared bacterial suspensions were inoculated to an additional microtiter plate (200 µL) and allowed to form biofilm overnight (18 h at 37 °C). After the incubation, the content of the well was drained off, and 200 µL of each of the three tested substances was added to the plate, which was then incubated for an additional 20 h. […]
All collected images were statistically evaluated to quantify biovolume utilizing the surface estimation procedure described in Parker et al.. […]

S. Infantis S13 [2] = assay: MIC for biofilm formation (crystal violet staining); format: cell-based, Salmonella enterica Infantis; details: for MICBF80: ≥80% prevention, 24 h
Experimental: (§1) Ten concentrations of NAC, RLs, and UA were tested to determine the minimum inhibitory concentration for planktonic growth, and subsequently, the six highest concentrations were applied on preformed biofilms to evaluate the biofilm eradication ability of the compounds. MIC was defined as the lowest substance concentration able to inhibit at least 80% of microbial growth (MICPC80 for planktonic cells, MICBC80 for further growth of biofilm cells), inhibit 80% of metabolic activity (MICBM80 for biofilm metabolic activity, MICMPB80 for metabolic activity of preformed biofilm), prevent biofilm formation by at least 80% (MICBF80 for biofilm formation), or reduce a preformed biofilm by at least 80% (MICBR80 for biofilm reduction). The results of MICs are summarized in Table 1 (planktonic cells) and Table 2 (biofilm-associated cells).
(§2) The determination of MICs was performed according to Chlumsky et al.. Briefly, 96-well flat-bottomed microtiter plates were inoculated with 75 µL (for biofilm formation) or 100 µL (for preformed biofilm) of bacterial suspension (A625nm 0.08 to 0.1) in technical triplicates and were then carefully mixed with the dilution series of the test substances (24 h cultivation at 25 °C for S. Infantis, 37 °C for other strains) or were directly cultivated to preform biofilms (18 h). For a positive control of bacterial growth, the inoculum was mixed with a pure sterile medium. Furthermore, the sterile medium was included in the plate as a marker of potential microbial contamination. To evaluate planktonic cells growth (MICPC80) and further growth of biofilm cells (MICBC80), the optical density of the content of the microtiter plates was measured spectrophotometrically at 625 nm before and after 24 h (for biofilm formation) of cultivation or before and after additional 20 h incubation with the tested compound (for preformed biofilm). The difference of A625nm was considered as a measure of the ability of cells to grow in the presence of the tested substances. To evaluate the inhibition of biofilm formation (MICBF80) and reduction in preformed biofilms (MICBR80), biomass was quantified using crystal violet staining, and its metabolic activity (MICBM80 and MICMPB80) was estimated by using the MTT (thiazyl tetrazolium bromide, Sigma-Aldrich, USA) reduction assay, both measured spectrophotometrically at 595 nm.
(§3) All inhibitions were calculated using the formula of Chlumsky et al. below (Equation (1)):(1) A625(595)nm inhibition (%)=A625(595)nm (control) – A625(595)nm(natural substance)/A625(595)nm (control)× 100 where A625(595)nm (control) is the absorbance of bacterial suspension/biofilm itself, and A625(595)nm(natural substance) is the absorbance of the bacterial suspension/biofilm with the added natural substance (NAC, RLs, and UA).
(§4) When the minimum inhibitory concentration could not be determined, the MIC was established as >the highest tested concentration for NAC, RLs, and UA.

S. Infantis S59 [3] = assay: as above; format: cell-based, Salmonella enterica Infantis; details: for MICBF80: ≥80% prevention, 24 h
Experimental: as §1, §2, §3, §4

S. Infantis S13 [4] = assay: MIC for reduction of preformed biofilm (crystal violet staining); format: cell-based, Salmonella enterica Infantis; details: for MICBR80: ≥80% reduction of preformed biofilm (18 h), 20 h with substance
Experimental: as §1, §2, §3, §4

S. Infantis S59 [5] = assay: as above; format: cell-based, Salmonella enterica Infantis; details: for MICBR80: ≥80% reduction of preformed biofilm (18 h), 20 h with substance
Experimental: as §1, §2, §3, §4

[6] = preformed biofilm, within tested concentrations

In the case of CC(=O)N[C@@H](CS)C(=O)O [NAC, N-Acetyl-L-cysteine], the “Thickness (µm) MICBM80” value ([1]; substance at its MICBM80, mean ± SD) is reported as 117 ± 41.6 µm, the “Thickness (µm) subCBM80” value [1] is reported as 137 ± 69.6 µm and the MICBF80 (S. Infantis S13 [2]) is reported as 12,500 µg/mL. For the same compound, the MICBF80 (S. Infantis S59 [3]) was 6250 µg/mL, the MICBR80 (S. Infantis S13 [4]) was 12,500 µg/mL and the MICBR80 (S. Infantis S59 [5]) was 100,000 µg/mL.

For CC(=O)c1c(O)c(C)c(O)c2c1OC1=CC(=O)C(C(C)=O)C(=O)C12C (single isomer, unassigned; (+)) [UA, (+)-usnic acid], the “Thickness (µm) subCBM80” value [1] was 77.6 ± 39.1 µm, the “maximal achieved inhibition (MICBF80 not reached)” value (S. Infantis S13 [2]; within tested concentrations) was 45% and the MICBF80 (S. Infantis S13 [2]) was greater than 31.3 µg/mL. For the same compound, the “maximal achieved inhibition (MICBF80 not reached)” value (S. Infantis S59 [3]; within tested concentrations) was 34%, the MICBF80 (S. Infantis S59 [3]) was greater than 31.3 µg/mL and the “maximal achieved inhibition (MICBR80 not reached), biofilm reduction” value (S. Infantis S13 [4]; [6]) was 30%. For the same compound, the MICBR80 (S. Infantis S13 [4]) was greater than 31.3 µg/mL, the “maximal achieved inhibition (MICBR80 not reached), biofilm reduction” value (S. Infantis S59 [5]; [6]) was 21% and the MICBR80 (S. Infantis S59 [5]) was greater than 31.3 µg/mL.
